Patent publication US9745267B2, “Compounds as modulators of RORC” (Boehringer Ingelheim International GmbH, priority 2013, dated 2017)
pIC50: −log10 of the molar value.

Molecular target: T1, RORγt (hRORC LBD) (Homo sapiens, UniProt P51449)
T1 construct: expressed in transfected cells; host or cells: HEK 293 (transient cotransfection with pGL4.3 luc2P/GAL4UAS/Hygro reporter)
T1 sequence (P51449 269-508 limits assumed): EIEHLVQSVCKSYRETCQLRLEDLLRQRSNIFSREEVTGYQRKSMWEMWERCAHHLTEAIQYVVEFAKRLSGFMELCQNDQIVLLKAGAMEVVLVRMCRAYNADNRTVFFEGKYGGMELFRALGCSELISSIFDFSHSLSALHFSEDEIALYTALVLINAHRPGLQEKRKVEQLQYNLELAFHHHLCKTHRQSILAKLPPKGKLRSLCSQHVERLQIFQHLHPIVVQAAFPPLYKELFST
Experiment: RGA Assay: nuclear receptor transactivation assay, RORγt transactivation of a luciferase reporter
Assay type: cell-based
Settings: transiently transfected HEK 293 cells, Gal4DBD hRORC LBD, 20-24 hours incubation
Description: A nuclear receptor transactivation assay was performed to quantitate the ability of test compounds to inhibit RORγt transactivation of a luciferase reporter. A similar assay is described in: Khan et al., Bioorganic & Medicinal Chemistry Letters 23 (2013), 532-536. The system uses transiently transfected HEK 293 cells cotransfected with two plasmids (pGL4.3, luc2P/GAL4UAS/Hygro, and pBIND, Gal4DBD hRORC LBD1-3). The positive control is co-transiently transfected with both plasmids, and the negative control contains the pGL4.3 promoter sequence. Assays were assembled in 384 well plates where transiently transfected cells and test compound at varying concentrations were incubated for 20-24 hours. The next day, assays plates are taken out and equilibrated at RT for 20-30 minutes. Bright-Glo™ Luciferase Assay System is used to detect Luciferase production. After addition of Bright GLO detection reagent, the plates were incubated at RT for 20 minutes. The plates were read on an Envision plate reader to measure luminescence signal. The RLU signal is converted to POC relative to control and blank wells.
Compound Dilution Buffer:
Bright Glo Luciferase Assay System: Promega #E2620
Thaw lysis buffer provided in kit, add 100 mL lysis buffer to substrate powder.

Structure (SMILES)	pIC50
CNS(=O)(=O)c1ccc(CNC(=O)N2CC3(CCCC3)c3cc(Oc4cc(OC)ccc4C)ccc32)cc1 [Example 63]	5.85
CCCC1(C)CN(C(=O)NCc2ccc(S(=O)(=O)NC)cc2)c2ccc(-c3ccc(OC)cc3C(F)(F)F)cc21 (stereo not shown) [Example 64]	6.33
CCCC1(C)CN(C(=O)NCc2ccc(S(=O)(=O)NC)cc2)c2ccc(-c3ccc(F)cc3C)cc21 (stereo not shown) [Example 65]	5.82
CCS(=O)(=O)c1ccc(CNC(=O)N2CC3(CCCC3)c3cc(-c4ccc(OC)cc4C(F)(F)F)ccc32)cc1 [Example 66]	6.39
CCS(=O)(=O)c1ccc(CNC(=O)N2CC3(CCCC3)c3cc(-c4ccc(O)cc4C)ccc32)cc1 [Example 67]	6.39
CNS(=O)(=O)c1ccc(CNC(=O)N2CC3(CCCC3)c3cc(-c4ccc(OC)nc4C)ccc32)cc1 [Example 68]	5.72
CCS(=O)(=O)c1ccc(CNC(=O)N2CC3(CCCC3)c3cc(-c4ccc(CO)cc4C)ccc32)cc1 [Example 69]	5.96
CCS(=O)(=O)c1ccc(CNC(=O)N2CC3(CCCC3)c3cc(-c4ccc(C)cc4C#N)ccc32)cc1 [Example 70]	5.89
CCS(=O)(=O)c1ccc(CNC(=O)N2CC3(CCCC3)c3cc(-c4ccc(C#N)cc4C)ccc32)cc1 [Example 71]	6.13
CCS(=O)(=O)c1ccc(CNC(=O)N2CC3(CCCC3)c3cc(-c4cc(F)ccc4CC#N)ccc32)cc1 [Example 72]	5.92
CNS(=O)(=O)c1ccc(CNC(=O)N2CC3(CCCC3)c3cc(-c4ccccc4OC(F)(F)F)ccc32)cc1 [Example 73]	6.34
CNS(=O)(=O)c1ccc(CNC(=O)N2CC3(CCCC3)c3cc(-c4c(F)cccc4C(F)(F)F)ccc32)cc1 [Example 75]	6.85
CCS(=O)(=O)c1ccc(CNC(=O)N2CC3(CCCC3)c3cc(-c4cncnc4C(C)C)ccc32)cc1 [Example 76]	6.21
CNS(=O)(=O)c1ccc(CNC(=O)N2CC3(CCCC3)c3cc(-c4cccc(F)c4C)ccc32)cc1 [Example 77]	6.12
CCS(=O)(=O)c1ccc(CNC(=O)N2CC3(CCCC3)c3cc(-c4ccccc4-c4cnco4)ccc32)cc1 [Example 78]	6.10
CNS(=O)(=O)c1ccc(CNC(=O)N2CC3(CCCC3)c3cc(-c4cc(F)ccc4C(=O)OC)ccc32)cc1 [Example 79]	6.03
CCOC(=O)c1ccc(F)cc1-c1ccc2c(c1)C1(CCCC1)CN2C(=O)NCc1ccc(S(=O)(=O)NC)cc1 [Example 80]	6.01
CNS(=O)(=O)c1ccc(CNC(=O)N2CC3(CCCC3)c3cc(-c4ccccc4COC(C)(C)C)ccc32)cc1 [Example 81]	6.01
COc1ccc(-c2ccc3c(c2)C2(CCCC2)CN3C(=O)NCc2ccc(C#N)cc2)c(C(F)(F)F)c1 [Example 82]	5.96
CNS(=O)(=O)c1ccc(CNC(=O)N2CC3(CCCC3)c3cc(-c4cc(C)c(OC)cc4C)ccc32)cc1 [Example 83]	6.43
CNS(=O)(=O)c1ccc(CNC(=O)N2CC3(CCCC3)c3cc(-c4ccc(F)cc4C(=O)OC)ccc32)cc1 [Example 85]	5.89
CNS(=O)(=O)c1ccc(CNC(=O)N2CC3(CCCC3)c3cc(-c4ccccc4C(C)(C)O)ccc32)cc1 [Example 86]	6.00
CNS(=O)(=O)c1ccc(CNC(=O)N2CC3(CCCC3)c3cc(-c4ccccc4CC(F)(F)F)ccc32)cc1 [Example 87]	6.17
CNS(=O)(=O)c1ccc(CNC(=O)N2CC3(CCCC3)c3cc(-c4ccc(O)cc4C#N)ccc32)cc1 [Example 88]	6.04
CNS(=O)(=O)c1ccc(CNC(=O)N2CC3(CCCC3)c3cc(-c4c(C)cc(CO)cc4C)ccc32)cc1 [Example 89]	6.00
CNS(=O)(=O)c1ccc(CNC(=O)N2CC3(CCCC3)c3cc(-c4c(C)ccc(F)c4CC#N)ccc32)cc1 [Example 90]	6.24
CNS(=O)(=O)c1ccc(CNC(=O)N2CC3(CCCC3)c3cc(-c4c(C)cccc4C#N)ccc32)cc1 [Example 91]	6.06
CNS(=O)(=O)c1ccc(CNC(=O)N2CC3(CCCC3)c3cc(-c4cc(O)ccc4C)ccc32)cc1 [Example 92]	5.96
